Measured values as given in article PMC6542800 (Nature Communications, 2019).

How the values were obtained:
[1] = biological target: T1, Curled (NOCT ortholog), full-length, Curled 1-419 (Drosophila melanogaster, UniProt A8JQX3); test: ion-exchange chromatography, UV […] nm; type: biochemical; settings: 22 °C, 20 mM Tris-HCl pH 8.0, 70 mM NaCl, 2 mM MgCl2
T1 construct: gene cu; full length 1-419 of splicing form H; E. coli, pGEX-6P, GST tag removed with Prescission protease
T1 sequence (A8JQX3 224-642): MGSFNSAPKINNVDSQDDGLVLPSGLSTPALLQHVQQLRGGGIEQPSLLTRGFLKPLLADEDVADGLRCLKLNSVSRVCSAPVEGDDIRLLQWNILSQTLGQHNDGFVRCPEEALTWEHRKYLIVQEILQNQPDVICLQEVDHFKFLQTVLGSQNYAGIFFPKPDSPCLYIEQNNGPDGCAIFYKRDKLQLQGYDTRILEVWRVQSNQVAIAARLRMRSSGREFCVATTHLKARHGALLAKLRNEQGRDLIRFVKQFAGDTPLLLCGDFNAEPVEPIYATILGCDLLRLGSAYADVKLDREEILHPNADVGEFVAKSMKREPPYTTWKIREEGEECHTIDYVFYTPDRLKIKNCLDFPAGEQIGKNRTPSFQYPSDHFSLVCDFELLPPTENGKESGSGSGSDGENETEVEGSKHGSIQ

[2] = biological target: T2, full-length (FL) human NOCT (Homo sapiens, UniProt Q9UK39); test: ion-exchange chromatography, UV […] nm; type: biochemical; settings: 22 °C, 20 mM Tris-HCl pH 8.0, 70 mM NaCl, 2 mM MgCl2; 1 mM substrate, 0.5 μM enzyme
T2 construct: E. coli, pGEX-6P, GST tag removed with Prescission protease
T2 sequence (Q9UK39 1-431): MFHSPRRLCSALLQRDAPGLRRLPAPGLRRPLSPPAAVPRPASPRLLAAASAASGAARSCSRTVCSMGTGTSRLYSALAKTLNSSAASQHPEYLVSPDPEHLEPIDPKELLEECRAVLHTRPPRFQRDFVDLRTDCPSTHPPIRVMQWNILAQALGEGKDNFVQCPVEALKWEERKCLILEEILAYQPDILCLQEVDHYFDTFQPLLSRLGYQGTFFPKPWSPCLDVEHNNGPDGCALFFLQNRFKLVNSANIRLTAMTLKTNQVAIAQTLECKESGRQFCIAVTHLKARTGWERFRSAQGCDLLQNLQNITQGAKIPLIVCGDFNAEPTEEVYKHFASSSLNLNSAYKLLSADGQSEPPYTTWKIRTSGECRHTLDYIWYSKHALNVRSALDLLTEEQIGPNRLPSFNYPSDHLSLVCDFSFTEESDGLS

[3] = biological target: T3, NOCT (122-431), catalytic domain of human NOCT (Homo sapiens, UniProt Q9UK39); test: LC-MS/MS product detection; type: biochemical; settings: 10 μM enzyme, 1 h at r.t.
T3 construct: catalytic domain, residues 122-431; E. coli BL21 (DE3)-CodonPlus RIPL, pGEX-6P, GST tag removed with Prescission protease
T3 sequence (Q9UK39 122-431): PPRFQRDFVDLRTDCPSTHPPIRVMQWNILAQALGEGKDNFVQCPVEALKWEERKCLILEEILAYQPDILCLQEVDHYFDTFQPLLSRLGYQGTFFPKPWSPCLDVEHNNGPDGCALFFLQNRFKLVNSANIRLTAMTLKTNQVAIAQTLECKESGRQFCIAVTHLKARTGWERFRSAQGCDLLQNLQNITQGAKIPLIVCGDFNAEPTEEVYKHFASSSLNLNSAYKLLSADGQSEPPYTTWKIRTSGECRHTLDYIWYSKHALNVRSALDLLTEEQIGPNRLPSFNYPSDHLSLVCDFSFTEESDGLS

[4] = substrate: NC(=O)C1=CN([C@@H]2O[C@H](COP(=O)(O)OP(=O)(O)OC[C@H]3O[C@@H](n4cnc5c(N)ncnc54)[C@H](OP(=O)(O)O)[C@@H]3O)[C@@H](O)[C@H]2O)C=CC1; test: purified protein; settings: 22 °C, 20 mM Tris-HCl pH 8.0, 70 mM NaCl

## NC(=O)C1=CN([C@@H]2O[C@H](COP(=O)(O)OP(=O)(O)OC[C@H]3O[C@@H](n4cnc5c(N)ncnc54)[C@H](OP(=O)(O)O)[C@@H]3O)[C@@H](O)[C@H]2O)C=CC1 [NADPH]
[1]; 1 mM substrate, 500 nM enzyme
  ion-exchange chromatography, UV 260 nm: In contrast, Curled readily cleaved NADPH (Fig. 5c; Supplementary Fig. 5b)

## NC(=O)c1ccc[n+]([C@@H]2O[C@H](COP(=O)(O)OP(=O)(O)OC[C@H]3O[C@@H](n4cnc5c(N)ncnc54)[C@H](OP(=O)(O)O)[C@@H]3O)[C@@H](O)[C@H]2O)c1 [NADP^+]
[2]
  ion-exchange chromatography, UV 260 nm: conversion of both NADP^+ and NADPH into NAD^+ and NADH, respectively by full-length (FL) NOCT
[1]
  ion-exchange chromatography, UV 260 nm: Curled cleaved both NADP^+ and NADPH, exhibiting a preference for NADPH
[3]
  LC-MS/MS product detection: converted NADPH into NADH and NADP^+ into NAD^+ (Fig. 1c)

B1: NOCT (122-431), catalytic domain of human NOCT (Homo sapiens) (protein)
chain: T3 sequence (Q9UK39 122-431)
[4]; 2 mM MgCl2, 4.8 μM enzyme, printed range may span catalytic domain and full-length protein
  kcat: 3.6 s⁻¹

B2: full-length (FL) human NOCT (Homo sapiens) (protein)
chain: T2 sequence (Q9UK39 1-431)
[4]; 2 mM MgCl2, printed range may span catalytic domain and full-length protein
  kcat: 34 s⁻¹
